Target: Carbonic anhydrase 9 (Homo sapiens, UniProt Q16790)
Assay: Inhibition of human CA9 measured by stopped flow CO2 hydrase assay

| SMILES | Ki [nM] |
| --- | --- |
| N#Cc1cccnc1-c1nccc(OCc2cn(-c3ccc(S(N)(=O)=O)cc3)nn2)n1 | 155 |
| CCOC(=O)N1CCN(c2nc(C)cc(OCc3cn(-c4ccc(S(N)(=O)=O)cc4)nn3)n2)CC1 | 33.4 |
| Cc1cc(OCc2cn(-c3ccc(S(N)(=O)=O)cc3)nn2)nc(N2CCN(c3ccc(F)cc3)CC2)n1 | 466 |
| NS(=O)(=O)c1ccc(-n2cc(COc3ccnc(N4CCN(C(c5ccccc5)c5ccccc5)CC4)n3)nn2)cc1 | 192 |
| NS(=O)(=O)c1ccc(-n2cc(COc3ccnc(N4CCOCC4)n3)nn2)cc1 | 42.5 |
| Cc1cc(OCc2cn(-c3ccc(S(N)(=O)=O)cc3)nn2)nc(N2CCN(Cc3ccccc3)CC2)n1 | 41.1 |
| Cc1cc(OCc2cn(-c3ccc(S(N)(=O)=O)cc3)nn2)nc(-c2ncccc2C#N)n1 | 32 |
| NS(=O)(=O)c1ccc(-n2cc(COc3ccnc(N4CCN(Cc5ccc(Cl)cc5)CC4)n3)nn2)cc1 | 32.2 |
| COc1ccc(-c2nccc(OCc3cn(-c4ccc(S(N)(=O)=O)cc4)nn3)n2)cc1 | 51.4 |
| COc1ccccc1N1CCN(c2nc(C)cc(OCc3cn(-c4ccc(S(N)(=O)=O)cc4)nn3)n2)CC1 | 36.3 |
| Cc1cc(OCc2cn(-c3ccc(S(N)(=O)=O)cc3)nn2)nc(N2CCCCC2)n1 | 35.8 |
| NS(=O)(=O)c1ccc(-n2cc(COc3ccnc(N4CCN(Cc5ccccc5)CC4)n3)nn2)cc1 | 39.1 |
| NS(=O)(=O)c1ccc(-n2cc(COc3ccnc(N4CCCCC4)n3)nn2)cc1 | 41.3 |
| Cc1cc(OCc2cn(-c3ccc(S(N)(=O)=O)cc3)nn2)nc(N2CCN(c3ccccc3)CC2)n1 | 32.8 |
| COc1ccccc1N1CCN(c2nccc(OCc3cn(-c4ccc(S(N)(=O)=O)cc4)nn3)n2)CC1 | 44.7 |

Stronger by Ki, values ahead:

| Ki [nM] | SMILES |
| --- | --- |
| 2.9 | Cc1cc(OCc2cn(-c3ccc(S(N)(=O)=O)cc3)nn2)nc(N2CCN(Cc3ccc(Cl)cc3)CC2)n1 |
| 30.2 | Cc1cc(OCc2cn(-c3ccc(S(N)(=O)=O)cc3)nn2)nc(N2CCOCC2)n1 |
| 25.8 | NS(=O)(=O)c1ccc(-n2cc(COc3ccnc(N4CCN(c5ccc(F)cc5)CC4)n3)nn2)cc1 |
| 16.1 | CCN1CCN(c2nc(C)cc(OCc3cn(-c4ccc(S(N)(=O)=O)cc4)nn3)n2)CC1 |
| 1.6 | CCOC(=O)N1CCN(c2nccc(OCc3cn(-c4ccc(S(N)(=O)=O)cc4)nn3)n2)CC1 |
| 21.4 | Cc1cc(OCc2cn(-c3ccc(S(N)(=O)=O)cc3)nn2)nc(N2CCN(C(c3ccccc3)c3ccccc3)CC2)n1 |
| 9.1 | Cc1cc(OCc2cn(-c3ccc(S(N)(=O)=O)cc3)nn2)nc(N2CCN(c3ccccn3)CC2)n1 |
| 26.3 | NS(=O)(=O)c1ccc(-n2cc(COc3ccnc(N4CCN(c5ccccc5)CC4)n3)nn2)cc1 |
| 22.7 | CCN1CCN(c2nccc(OCc3cn(-c4ccc(S(N)(=O)=O)cc4)nn3)n2)CC1 |
| 29.7 | COc1ccc(-c2nc(C)cc(OCc3cn(-c4ccc(S(N)(=O)=O)cc4)nn3)n2)cc1 |
| 30.4 | CN1CCN(c2nccc(OCc3cn(-c4ccc(S(N)(=O)=O)cc4)nn3)n2)CC1 |
| 16.8 | NS(=O)(=O)c1ccc(-n2cc(COc3ccnc(N4CCN(c5ccccn5)CC4)n3)nn2)cc1 |
| 24.1 | Cc1cc(OCc2cn(-c3ccc(S(N)(=O)=O)cc3)nn2)nc(N2CCN(C)CC2)n1 |

Reference: ChEMBL document CHEMBL4808201, “Novel triazole-sulfonamide bearing pyrimidine moieties with carbonic anhydrase inhibitory action: Design, synthesis, computational and enzyme inhibition studies” (Bioorg Med Chem Lett, 2021)
